Measured values published in BindingDB's records for doi:10.7270/Q2T72FW8 (Broad Institute, 2010).

These compounds were tested against T1, S-ribosylhomocysteine lyase (Vibrio harveyi, UniProt B0LUE4) (assay: Vibrio harveyi growth inhibition, confirmation, counter-screen for AI-2 quorum sensing modulator project, absorbance, dose retest (AID 2725)).
T1 sequence (B0LUE4 whole entry): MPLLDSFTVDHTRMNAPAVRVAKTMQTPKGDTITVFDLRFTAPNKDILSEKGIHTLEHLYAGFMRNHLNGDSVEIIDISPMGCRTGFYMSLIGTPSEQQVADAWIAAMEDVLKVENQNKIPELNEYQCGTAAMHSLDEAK

Point of comparison: `COc1cc(NC(=O)CN2C(=O)NC(c3ccccc3)(c3ccccc3)C2=O)cc(OC)c1` [MLS001176525], EC50 13.7 µM. Against it:
- C=Cn1c(C(=O)O)ccc1-c1ccc(CC)cc1 — higher, > 160 µM
- CCCc1ccc(S(=O)(=O)N(C)S(=O)(=O)c2ccc(F)cc2)cc1 [N-(4-fluorophenyl)sulfonyl-N-methyl-4-propylbenzenesulfonamide] — 3-fold lower, 4.55 µM
- Cn1cnc(S(=O)(=O)Nc2ccc(OC(F)(F)F)cc2)c1 [SMR000314513] — higher, > 160 µM
- Cc1cccc(NS(=O)(=O)c2ccc(Oc3ccccc3)cc2)n1 [SMR000071466] — higher, > 160 µM
- CCc1ccc(S(=O)(=O)Nc2ccc(Br)cn2)cc1 [MLS001211346] — higher, > 160 µM
- CN(C)S(=O)(=O)c1ccc(NC(=S)NC(=O)Cc2ccccc2)cc1 [N-[[4-(dimethylsulfamoyl)phenyl]carbamothioyl]-2-phenyl-ethanamide] — higher, > 160 µM
